Laboratory results taken from patent US7670806B2, “ADP-ribosyl acceptor hydrolase 3 (ARH3) polypeptides and methods of use” (The United States of America as represented by the …, priority 2005, dated 2010).

Tests used:
ARH3 = biological target: T1, ARH3 (Mus musculus, UniProt Q8CG72); assay: Inhibition of ARH3-catalyzed hydrolysis of O-acetyl-ADP-ribose; assay type: biochemical
T1 construct: The entire coding regions were ligated into pGEX-2T expression vector; GST (N); made in house; host or cells: E. coli BL21 Rosetta
T1 sequence (Q8CG72 1-370): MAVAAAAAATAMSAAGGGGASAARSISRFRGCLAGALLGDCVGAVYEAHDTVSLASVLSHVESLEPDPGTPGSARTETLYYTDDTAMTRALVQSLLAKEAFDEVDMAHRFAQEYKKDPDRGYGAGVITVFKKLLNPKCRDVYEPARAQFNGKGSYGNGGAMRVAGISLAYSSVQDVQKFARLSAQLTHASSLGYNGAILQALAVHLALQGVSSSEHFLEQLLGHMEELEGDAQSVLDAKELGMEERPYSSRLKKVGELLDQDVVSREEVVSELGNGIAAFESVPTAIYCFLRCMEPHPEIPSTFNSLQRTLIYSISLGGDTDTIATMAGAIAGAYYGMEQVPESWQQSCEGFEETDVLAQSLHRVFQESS
Experimental: FIG. 15A is a graph of the results from an assay with 2 pmol of ARH3 and the indicated amount of ADP-ribose (●) or β-NAD (∘) in 200 μl for 2 h at 30° C., as described in FIG. 11B. FIG. 15B is a graph of the inhibition of ARH3 hydrolysis by ADP-ribose data schematized for Lineweaver-Burk plot.
Mouse ARH3 (2 pmol) and 2.5 μM O-acetyl-[^14C]ADP-ribose (5,000 cpm) in 200 μl of buffer containing 50 mM potassium phosphate (pH 7.0), 10 mM MgCl2 and 5 mM DTT were incubated for 2 h at 30° C., before separation of substrate and products using RP-HPLC as described below.
Hydrolysis of O-acetyl-[^14C]ADP-ribose catalyzed by ARH3. Assays containing the indicated concentration of O-acetyl-[^14C]-ADP-ribose (0.1 to 2 nmol, 1,000 to 20,000 cpm) and 1.5 pmol of ARH3 in 200 μl of buffer (50 mM KPO4 (pH 7.0), 10 mM MgCl2, 5 mM DTT) were incubated at 30° C. for 20 min. Substrate and products were separated using RP-HPLC. Amounts of product were corrected for ADP-ribose produced in the absence of ARH3 before calculation of hydrolysis rates.
ADP-ribose inhibited ARH3-catalyzed hydrolysis of 2.5 μM O-acetyl-ADP-ribose, ˜50% at a concentration of ca. 10 μM.

[1] = Poly(ADP-ribose) hydrolysis (autoradiography, high resolution PAGE, HPLC); assay type: biochemical; conditions: [32P]poly(ADP-ribose) or poly(ADP-ribose)PARP; 37° C.; autoradiography / PAGE / HPLC
Experimental: Poly(ADP-ribose) hydrolysis by autoradiography. [^32P]poly(ADP-ribose)PARP (500 ng of PARP with poly(ADP-ribose) was incubated (37° C., 2 h) with 2 μM ARH in 25 μl of 50 mM potassium phosphate buffer, pH 7.5, with or without 10 mM MgCl2 and/or 5 mM DTT. Reactions were stopped by adding 6 μl of 5× Laemmli buffer. Samples (20 μl) of proteins were separated by SDS-PAGE in 4-20% gels and transferred to nitrocellulose membranes that were exposed to X-ray film (Kodak) for 10 h.
Hydrolysis of poly(ADP-ribose) by PARG and ARH3. Purified [^32P] poly(ADP-ribose) (5.5×10^5 cpm, ˜300 nM ADP-ribose) was incubated for the indicated time at 37° C. in 25 μl of 50 mM potassium phosphate, pH 7.5, containing 10 mM MgCl2 and 5 mM DTT with enzyme or other additions as indicated and terminated by addition of 25 μl of 2× electrophoresis buffer (Invitrogen). [^32P]AMP was generated by incubation (37° C., 3 h) of 10 μM [^32P] NAD (10 μCi/reaction) with pyrophosphatase (40 units/mg from SIGMA, 1 mg/ml) in 25 μl of 50 mM KPO4, pH 7.5, and 10 mM MgCl2. [^32P] […]
Poly(ADP-ribose)PARP was used as substrate to assay potential poly(ADP-ribose) hydrolase activities of recombinant ARH1, 2 or 3. […] Fractions (1 ml) were collected for liquid scintillation counting to quantify [^14C]ADP-ribose, which was eluted in fractions from 34 min to 43 min. […]

[2] = Rafty et al. (2002), cited from earlier work

In the case of `Nc1ncnc2c1ncn2[C@@H]1O[C@H](COP(=O)(O)OP(=O)(O)OC[C@H]2OC(O)[C@H](O)[C@@H]2O)[C@@H](O)[C@H]1O` (some centres unmarked) [ADP-ribose], the “Inhibition of ARH3-catalyzed hydrolysis of O-acetyl-ADP-ribose” value (ARH3; 2.5 μM O-acetyl-ADP-ribose, inhibitor at ca. 10 μM, 2 pmol ARH3, 2 h at 30° C.) is reported as ~50% and the Ki (ARH3; Lineweaver-Burk plot, substrate O-acetyl-ADP-ribose) is reported as 8.6 µM.
With “ARH1: 39-kDa ADP-ribose-(arginine) protein hydrolase, recombinant mouse or human” the “Poly(ADP-ribose) hydrolysis (in words)” value [1] was “did not”.
In the case of “murine Nudix: murine Nudix family ADP-ribose pyrophosphatase (Rafty et al. 2002)”, the “kcat, O-acetyl-ADP-ribose” value [2] is given as 0.78 ± 0.18 s⁻¹ and the Km ([2]; read-out: Km for O-acetyl-ADP-ribose) is given as 45 ± 0.9 µM.
